From US20230365559A1, “NOVEL AMINOPYRIDINES AND THEIR USE IN TREATING CANCER” (priority 2020, published 2023)
“And” between values parts separate entries of the source, which are not always exact repeats. Identical values can stand only once.

Assays:
UT-SCC-54C cells [1] = experiment: Radiosensitisation of UT-SCC-54C HNSCC cells, regrowth (sulforhodamine B) assay, oxic (Table 16); format: cell-based, human; details: for IC50: Homo sapiens, read-out: IC50; for S50: compound in combination with 3 Gy of radiation, 50% inhibition of regrowth fraction, UT-SCC-54C; for S50 / radiosensitisation / differential growth inhibition of UT-SCC-54C cells: oxic; for radiosensitisation / differential growth inhibition of UT-SCC-54C cells: 0 or 3 Gy, regrowth assay
human mTOR = human mTOR (Homo sapiens, UniProt P42345); experiment: Inhibition of mTOR kinase activity, HotSpot assay, phosphorylation of 4EPB1; details: Inhibition of kinase activity (as IC50) mTOR (nM), 10 μM ATP; mean of two replicates; Table 12
human PI3Kα (p110α/p85α) = human PI3Kα (p110α/p85α) (Homo sapiens, UniProt P42336); experiment: Inhibition of PI3Kα kinase activity, ADP-Glo Assay (Reaction Biology); format: biochemical; details: 10 μM ATP; mean of two replicates; Table 12; read-out: Inhibition of kinase activity (as IC50) PICK
human DNA-PK = human DNA-PK (Homo sapiens, UniProt P78527); experiment: Inhibition of DNA-PKcs kinase activity, HotSpot assay (Reaction Biology), [γ-33P]-ATP phosphorylation of peptide substrate; format: biochemical; details: 10 μM ATP, 10 μg/ml DNA; mean of two replicates; Table 12; read-out: Inhibition of kinase activity (as IC50) DNA-PK (converted)
UT-SCC-54C cells [2] = experiment: Radiosensitisation of UT-SCC-54C HNSCC cells, clonogenic survival, oxic and anoxic (Table 18); format: cell-based, human; details: for Plating efficiency drug/no drug: no radiation; for sensitisation of UT-SCC-54C cells selectively under anoxia: oxic vs anoxic, clonogenic survival, FIGS. 9 and 10

human PI3Kα (p110α/p85α), sequence (P42336 whole entry): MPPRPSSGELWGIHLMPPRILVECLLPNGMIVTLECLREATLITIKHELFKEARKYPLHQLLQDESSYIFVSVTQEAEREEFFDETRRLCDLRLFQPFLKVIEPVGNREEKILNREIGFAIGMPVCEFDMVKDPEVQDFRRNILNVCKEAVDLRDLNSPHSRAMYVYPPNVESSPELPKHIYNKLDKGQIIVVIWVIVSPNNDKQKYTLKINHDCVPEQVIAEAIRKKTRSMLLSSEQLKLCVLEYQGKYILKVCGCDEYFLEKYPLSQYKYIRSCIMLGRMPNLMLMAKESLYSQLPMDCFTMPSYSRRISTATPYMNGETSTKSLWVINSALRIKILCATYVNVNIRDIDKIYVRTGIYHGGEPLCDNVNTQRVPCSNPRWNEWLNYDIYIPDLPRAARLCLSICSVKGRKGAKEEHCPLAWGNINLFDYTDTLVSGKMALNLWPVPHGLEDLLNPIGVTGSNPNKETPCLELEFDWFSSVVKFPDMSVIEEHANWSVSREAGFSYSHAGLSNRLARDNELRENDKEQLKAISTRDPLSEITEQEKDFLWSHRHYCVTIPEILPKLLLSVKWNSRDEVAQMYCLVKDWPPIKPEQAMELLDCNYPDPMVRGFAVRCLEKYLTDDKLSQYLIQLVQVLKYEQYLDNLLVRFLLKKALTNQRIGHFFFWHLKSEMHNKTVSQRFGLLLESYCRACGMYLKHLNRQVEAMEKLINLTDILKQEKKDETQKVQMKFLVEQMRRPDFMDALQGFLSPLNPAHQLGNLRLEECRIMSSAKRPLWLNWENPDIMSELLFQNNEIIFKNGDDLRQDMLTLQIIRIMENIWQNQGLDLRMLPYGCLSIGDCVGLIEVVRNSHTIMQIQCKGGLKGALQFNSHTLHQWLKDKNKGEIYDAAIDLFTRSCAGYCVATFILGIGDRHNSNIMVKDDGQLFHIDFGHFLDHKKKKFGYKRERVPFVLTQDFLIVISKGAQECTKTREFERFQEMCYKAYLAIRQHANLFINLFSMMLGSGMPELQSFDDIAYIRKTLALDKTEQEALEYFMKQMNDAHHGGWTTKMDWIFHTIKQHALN
human PI3Kα (p110α/p85α), sequence (P27986 whole entry partner): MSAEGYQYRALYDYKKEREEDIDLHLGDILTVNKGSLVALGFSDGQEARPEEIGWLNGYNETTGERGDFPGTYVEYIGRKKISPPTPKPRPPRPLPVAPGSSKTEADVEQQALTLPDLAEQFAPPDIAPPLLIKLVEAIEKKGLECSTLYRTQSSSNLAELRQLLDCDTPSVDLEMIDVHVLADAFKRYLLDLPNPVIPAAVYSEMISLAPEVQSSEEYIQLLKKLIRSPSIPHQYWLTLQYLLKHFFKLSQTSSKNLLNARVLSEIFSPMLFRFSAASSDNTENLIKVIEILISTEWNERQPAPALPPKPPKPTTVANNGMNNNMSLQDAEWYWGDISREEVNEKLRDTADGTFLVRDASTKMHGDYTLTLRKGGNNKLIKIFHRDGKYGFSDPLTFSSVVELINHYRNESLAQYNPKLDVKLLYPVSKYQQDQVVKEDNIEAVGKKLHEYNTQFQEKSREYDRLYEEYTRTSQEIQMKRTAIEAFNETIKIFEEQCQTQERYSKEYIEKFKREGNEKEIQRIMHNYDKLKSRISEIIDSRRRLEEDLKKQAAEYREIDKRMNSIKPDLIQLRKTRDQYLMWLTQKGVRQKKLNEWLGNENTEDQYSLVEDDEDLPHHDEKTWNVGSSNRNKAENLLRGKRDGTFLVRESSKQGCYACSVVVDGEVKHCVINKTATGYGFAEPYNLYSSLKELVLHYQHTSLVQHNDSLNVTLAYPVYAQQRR

| Compound | IC50 (UT-SCC-54C cells [1]) [µM] | S50 (UT-SCC-54C cells [1]) [µM] | IC50 (human PI3Kα (p110α/p85α)) | IC50 (human DNA-PK) [µM] | further results |
| --- | --- | --- | --- | --- | --- |
| Cn1c(=O)n(C2CCCC2)c2cc(Nc3ccc4ncsc4c3)ncc21 [Compound 70, 6-(Benzo[d]thiazol-6-ylamino)-1-cyclopentyl-3-methyl-1,3-dihydro-2H-imidazo[4,5-c]pyridin-2-one] | > 10 | 2.62 |  |  |  |
| Cc1ccncc1Nc1cc2c(cn1)n(C)c(=O)n2C1CCCC1 [Compound 78, 1-Cyclopentyl-3-methyl-6-((4-methylpyridin-3-yl)amino)-1,3-dihydro-2H-imidazo[4,5-c]pyridin-2-one] | > 10 | 4.09 |  |  |  |
| COCCn1c(=O)n(C)c2cnc(Nc3ccc(Cl)cc3C)cc21 [Compound 105, 6-((4-Chloro-2-methylphenyl)amino)-1-(2-methoxyethyl)-3-methyl-1,3-dihydro-2H-imidazo[4,5-c]pyridin-2-one] |  |  | 3.26 µM | 0.0121 | IC50 (human mTOR): 71400 nM |
| Cc1cc(Cl)ccc1Nc1cc2c(cn1)n(C)c(=O)n2C1CCOCC1 [Compound 122, 6-((4-Chloro-2-methylphenyl)amino)-3-methyl-1-(tetrahydro-2H-pyran-4-yl)-1,3-dihydro-2H-imidazo[4,5-c]pyridin-2-one] | > 10 | 0.38 | 2.53 µM and 5.53 µM |  | IC50 (human mTOR): 46600 nM and 56100 nM |
| Cc1cc(OCc2ccccc2)ccc1Nc1cc2c(cn1)n(C)c(=O)n2C1CCOCC1 [Compound 124, 6-((4-(Benzyloxy)-2-methylphenyl)amino)-3-methyl-1-(tetrahydro-2H-pyran-4-yl)-1,3-dihydro-2H-imidazo[4,5-c]pyridin-2-one] |  |  | 5.45 µM | 0.422 |  |
| Cc1cc(Cl)ccc1N(C(=O)OCc1ccccc1)c1cc2c(cn1)n(C)c(=O)n2C1CCOCC1 [Compound 134, Benzyl (4-Chloro-2-methylphenyl)(3-methyl-2-oxo-1-(tetrahydro-2H-pyran-4-yl)-2,3-dihydro-1H-imidazo[4,5-c]pyridin-6-yl)carbamate] |  |  | > 10 µM | > 10 |  |
| COc1ccc(N(C(=O)OCc2ccccc2)c2cc3c(cn2)n(C)c(=O)n3C2CCN(C(=O)OC(C)(C)C)CC2)c(C)c1 [Compound 154, tert-Butyl 4-(6-(((Benzyloxy)carbonyl)(4-methoxy-2-methylphenyl)amino)-3-methyl-2-oxo-2,3-dihydro-1H-imidazo[4,5-c]pyridin-1-yl)piperidine-1-carboxylate] | > 10 | 2.06 |  |  |  |
| COc1ccc(-n2c(=O)n(C)c3cnc(Nc4ccc(OC)cc4C)cc32)cc1 [Compound 195, 6-((4-Methoxy-2-methylphenyl)amino)-1-(4-methoxyphenyl)-3-methyl-1,3-dihydro-2H-imidazo[4,5-c]pyridin-2-one] |  |  |  |  | D1 (radiation dose for 1% surviving fraction) (UT-SCC-54C cells [2]; 20% O2, compound conc 0.33 μM): 1.53 Gy; D10 (radiation dose for 10% surviving fraction) (UT-SCC-54C cells [2]; 20% O2, compound conc 0.33 μM): 4.67 Gy; D1 (radiation dose for 1% surviving fraction) (UT-SCC-54C cells [2]; 20% O2, compound conc 1 μM): 2.75 Gy; D10 (radiation dose for 10% surviving fraction) (UT-SCC-54C cells [2]; 20% O2, compound conc 1 μM): 2.60 Gy; D1 (radiation dose for 1% surviving fraction) (UT-SCC-54C cells [2]; 20% O2, compound conc 3 μM): 3.90 Gy; D10 (radiation dose for 10% surviving fraction) (UT-SCC-54C cells [2]; 20% O2, compound conc 3 μM): 1.83 Gy; radiosensitisation, clonogenic survival endpoint (UT-SCC-54C cells [2]; UT-SCC-54C, FIG. 8 and Table 18): concentration-dependent increases in radiosensitisation |
| COc1ccc(-n2c(=O)n(C)c3cnc(Nc4ccc(Cl)cc4C)cc32)cc1 [Compound 196, 6-((4-Chloro-2-methylphenyl)amino)-1-(4-methoxyphenyl)-3-methyl-1,3-dihydro-2H-imidazo[4,5-c]pyridin-2-one] | > 10 | 0.68 | 0.237 µM | 0.00027 |  |
| COc1ccc(-n2c(=O)n(C)c3cnc(Nc4ccc(S(C)(=O)=O)cc4C)cc32)cc1 [Compound 198, 1-(4-Methoxyphenyl)-3-methyl-6-((2-methyl-4-(methylsulfonyl)phenyl)amino)-1,3-dihydro-2H-imidazo[4,5-c]pyridin-2-one] | > 10 | 0.17 | 1.8 µM | 0.023 |  |
| COc1ccc(-n2c(=O)n(C)c3cnc(Nc4ccc(OCc5ccccc5)cc4C)cc32)cc1 [Compound 199, 6-((4-(Benzyloxy)-2-methylphenyl)amino)-1-(4-methoxyphenyl)-3-methyl-1,3-dihydro-2H-imidazo[4,5-c]pyridin-2-one] |  |  |  | 0.055 |  |
| Cc1cc(Cl)ccc1Nc1cc2c(cn1)n(C)c(=O)n2-c1ccc(C(C)(C)C#N)cc1 [Compound 212, 2-(4-(6-((4-Chloro-2-methylphenyl)amino)-3-methyl-2-oxo-2,3-dihydro-1H-imidazo[4,5-c]pyridin-1-yl)phenyl)-2-methylpropanenitrile] | > 10 | 0.51 | 0.803 µM | < 0.00051 |  |
| Cn1c(=O)n(-c2ccc(C(C)(C)C#N)cc2)c2cc(Nc3ccc4nccnc4c3)ncc21 [Compound 214, 2-Methyl-2-(4-(3-methyl-2-oxo-6-(quinoxalin-6-ylamino)-2,3-dihydro-1H-imidazo[4,5-c]pyridin-1-yl)phenyl)propanenitrile] |  |  |  | 0.043 |  |
| Cc1cc(OC(C)c2cnc([N+](=O)[O-])n2C)ccc1Nc1cc2c(cn1)n(C)c(=O)n2C1CCOCC1 (stereo not shown) [Compound 238, 3-Methyl-6-((2-methyl-4-(1-(1-methyl-2-nitro-1H-imidazol-5-yl)ethoxy)phenyl)amino)-1-(tetrahydro-2H-pyran-4-yl)-1,3-dihydro-2H-imidazo[4,5-c]pyridin-2-one] | > 10 | >10 |  |  | radiosensitisation / differential growth inhibition of UT-SCC-54C cells (UT-SCC-54C cells [1]): did not display any differential growth inhibition; D1 (radiation dose for 1% surviving fraction) (UT-SCC-54C cells [2]; 0% O2, compound conc 1 μM): 15.0 Gy; D10 (radiation dose for 10% surviving fraction) (UT-SCC-54C cells [2]; 0% O2, compound conc 1 μM): 8.46 Gy; SER1 (sensitiser enhancement ratio at 1% surviving fraction) (UT-SCC-54C cells [2]; 0% O2, compound conc 1 μM): 1.44; SER10 (sensitiser enhancement ratio at 10% surviving fraction) (UT-SCC-54C cells [2]; 0% O2, compound conc 1 μM): 1.65; Plating efficiency drug/no drug (UT-SCC-54C cells [2]; 0% O2, compound conc 1 μM): 1.02; sensitisation of UT-SCC-54C cells selectively under anoxia (UT-SCC-54C cells [2]): provide sensitisation of UT-SCC-54C cells selectively under anoxia |
| Cc1cc(OCc2ncc([N+](=O)[O-])n2C)ccc1Nc1cc2c(cn1)n(C)c(=O)n2C1CCOCC1 [Compound 240, 3-Methyl-6-((2-methyl-4-((1-methyl-5-nitro-1H-imidazol-2-yl)methoxy)phenyl)amino)-1-(tetrahydro-2H-pyran-4-yl)-1,3-dihydro-2H-imidazo[4,5-c]pyridin-2-one] | > 10 | >10 |  |  | radiosensitisation / differential growth inhibition of UT-SCC-54C cells (UT-SCC-54C cells [1]): did not display any differential growth inhibition |
| COc1ccc(-n2c(=O)n(C)c3cnc(Nc4ccc(OCc5cnc([N+](=O)[O-])n5C)cc4C)cc32)cc1 [Compound 246, 1-(4-Methoxyphenyl)-3-methyl-6-((2-methyl-4-((1-methyl-2-nitro-1H-imidazol-5-yl)methoxy)phenyl)amino)-1,3-dihydro-2H-imidazo[4,5-c]pyridin-2-one] | > 10 | 6.08 | 1.28 µM | 0.116 | radiosensitisation / differential growth inhibition of UT-SCC-54C cells (UT-SCC-54C cells [1]): did not display any differential growth inhibition |
| COc1ccc(N(C(=O)OC(C)c2cnc([N+](=O)[O-])n2C)c2cc3c(cn2)n(C)c(=O)n3C2CCOCC2)c(C)c1 (stereo not shown) [Compound 250, 1-(1-Methyl-2-nitro-1H-imidazol-5-yl)ethyl (4-methoxy-2-methylphenyl)(3-methyl-2-oxo-1-(tetrahydro-2H-pyran-4-yl)-2,3-dihydro-1H-imidazo[4,5-c]pyridin-6-yl)carbamate] | > 10 | >10 |  |  | radiosensitisation / differential growth inhibition of UT-SCC-54C cells (UT-SCC-54C cells [1]): did not display any differential growth inhibition; D1 (radiation dose for 1% surviving fraction) (UT-SCC-54C cells [2]; 0% O2, compound conc 1 μM): 10.83 Gy; D10 (radiation dose for 10% surviving fraction) (UT-SCC-54C cells [2]; 0% O2, compound conc 1 μM): 5.78 Gy; SER1 (sensitiser enhancement ratio at 1% surviving fraction) (UT-SCC-54C cells [2]; 0% O2, compound conc 1 μM): 1.87; SER10 (sensitiser enhancement ratio at 10% surviving fraction) (UT-SCC-54C cells [2]; 0% O2, compound conc 1 μM): 2.09; Plating efficiency drug/no drug (UT-SCC-54C cells [2]; 0% O2, compound conc 1 μM): 0.98; sensitisation of UT-SCC-54C cells selectively under anoxia (UT-SCC-54C cells [2]): provide sensitisation of UT-SCC-54C cells selectively under anoxia |
| COc1ccc(-n2c(=O)n(C)c3cnc(N(C(=O)OCc4cnc([N+](=O)[O-])n4C)c4ccc(OC)cc4C)cc32)cc1 [Compound 259, (1-Methyl-2-nitro-1H-imidazol-5-yl)methyl (4-methoxy-2-methylphenyl)(1-(4-methoxyphenyl)-3-methyl-2-oxo-2,3-dihydro-1H-imidazo[4,5-c]pyridin-6-yl)carbamate] | > 10 | >10 |  |  | radiosensitisation / differential growth inhibition of UT-SCC-54C cells (UT-SCC-54C cells [1]): did not display any differential growth inhibition |
